Assay results taken from ChEMBL document CHEMBL1137662, “Effect of oral treatment with hexadecyloxypropyl-[(S)-9-(3-hydroxy-2- phosphonylmethoxypropyl)adenine] [(S)-HPMPA] or octadecyloxyethyl-(S)-HPMPA on cowpox or vaccinia virus infections in mice” (Antimicrob Agents Chemother, 2007).
Activity calls are given as the source filed them. No cut-off for these calls is given here.

Key:
Cowpox virus [1] = assay: Antiviral activity against Cowpox virus Brighton infected BALB/c mouse assessed as mortality at 3 mg/kg, po treated for 5 days after 48 hrs of viral inoculation; type: functional, Cowpox virus (Brighton Red)
Liver [2] = assay: Drug level in Swiss Webster mouse liver at 10 mg/kg, ip after 1 hr; type: ADME, organism-based; parameters: dose 10 mg/kg, route intraperitoneal; conditions: in vivo
Liver [3] = assay: Drug level in Swiss Webster mouse liver at 10 mg/kg, po after 3 hrs; type: ADME, organism-based; parameters: dose 10 mg/kg, route oral; conditions: in vivo
Mus musculus [4] = assay: Plasma concentration in Swiss Webster mouse at 10 mg/kg, po after 24 hrs by liquid scintillation counting; type: ADME, organism-based; parameters: dose 10 mg/kg, route oral; conditions: in vivo
[5] = Oral bioavailability in Swiss Webster mouse at 10 mg/kg; type: ADME, organism-based; conditions: in vivo
Mus musculus [6] = assay: Plasma concentration in Swiss Webster mouse at 10 mg/kg, ip after 24 hrs by liquid scintillation counting; type: ADME, organism-based; parameters: dose 10 mg/kg, route intraperitoneal; conditions: in vivo
Mus musculus [7] = assay: AUC (0 to 24hrs) in Swiss Webster mouse plasma at 10 mg/kg, po; type: ADME, organism-based; parameters: time < 24 hr, dose 10 mg/kg, route oral; conditions: in vivo
[8] = Tmax in Swiss Webster mouse at 10 mg/kg, po; type: ADME, organism-based; parameters: dose 10 mg/kg, route oral; conditions: in vivo
Mus musculus [9] = assay: AUC (0 to 24hrs) in Swiss Webster mouse plasma at 10 mg/kg, ip; type: ADME, organism-based; parameters: time < 24 hr, dose 10 mg/kg, route intraperitoneal; conditions: in vivo
[10] = Tmax in Swiss Webster mouse at 10 mg/kg, ip; type: ADME, organism-based; parameters: dose 10 mg/kg, route intraperitoneal; conditions: in vivo
[11] = Cmax in Swiss Webster mouse at 10 mg/kg, ip; type: ADME, organism-based; parameters: dose 10 mg/kg, route intraperitoneal; conditions: in vivo
[12] = Cmax in Swiss Webster mouse at 10 mg/kg, po; type: ADME, organism-based; parameters: dose 10 mg/kg, route oral; conditions: in vivo
[13] = Half life in Swiss Webster mouse at 10 mg/kg, ip; type: ADME, organism-based; parameters: dose 10 mg/kg, route intraperitoneal; conditions: in vivo
[14] = Half life in Swiss Webster mouse at 10 mg/kg, po; type: ADME, organism-based; parameters: dose 10 mg/kg, route oral; conditions: in vivo
Cowpox virus [15] = assay: Antiviral activity against Cowpox virus Brighton in HFF cells assessed as reduction of viral replication after 3 days; type: functional, organism-based, Cowpox virus (Brighton Red); conditions: 72 h
Cowpox virus [16] = assay: Antiviral activity against Cowpox virus Brighton infected BALB/c mouse assessed as reduction of virus titer in lung at 30 mg/kg, po treated for 5 days after 24 hrs of viral inoculation; type: functional, organism-based; parameters: dose 30 mg/kg; conditions: Cowpox virus (Brighton Red)
Vaccinia virus [17] = assay: Antiviral activity against Vaccinia virus WR infected BALB/c mouse assessed as log reduction of viral titer per gram of spleen at 30 mg/kg, po treated for 5 days after 24 hrs of viral inoculation; type: functional, Orthopoxvirus vaccinia
Vaccinia virus [18] = assay: Antiviral activity against Vaccinia virus WR infected BALB/c mouse assessed as log reduction of viral titer per gram of liver at 30 mg/kg, po treated for 5 days after 24 hrs of viral inoculation; type: functional, Orthopoxvirus vaccinia
Cowpox virus [19] = assay: Antiviral activity against Cowpox virus Brighton infected BALB/c mouse assessed as mean death day at 10 mg/kg, po treated for 5 days after 24 hrs of viral inoculation; type: functional, Cowpox virus (Brighton Red)
Cowpox virus [20] = assay: Antiviral activity against Cowpox virus Brighton infected BALB/c mouse assessed as mortality at 10 mg/kg, po treated for 5 days after 72 hrs of viral inoculation; type: functional, Cowpox virus (Brighton Red)
Vaccinia virus [21] = assay: Antiviral activity against Vaccinia virus WR infected BALB/c mouse assessed as mean death day at 3 mg/kg, po treated for 5 days after 72 hrs of viral inoculation; type: functional, Orthopoxvirus vaccinia
Vaccinia virus [22] = assay: Antiviral activity against Vaccinia virus WR infected BALB/c mouse assessed as mean death day at 10 mg/kg, po treated for 5 days after 72 hrs of viral inoculation; type: functional, Orthopoxvirus vaccinia
Vaccinia virus [23] = assay: Antiviral activity against Vaccinia virus WR infected BALB/c mouse assessed as mortality at 3 mg/kg, po treated for 5 days after 72 hrs of viral inoculation; type: functional, Orthopoxvirus vaccinia
Vaccinia virus [24] = assay: Antiviral activity against Vaccinia virus WR infected BALB/c mouse assessed as mortality at 3 mg/kg, po treated for 5 days after 48 hrs of viral inoculation; type: functional, Orthopoxvirus vaccinia
Lung [25] = assay: Drug level in Swiss Webster mouse lung at 10 mg/kg, po after 3 hrs; type: ADME, organism-based; parameters: dose 10 mg/kg, route oral; conditions: in vivo
Kidney [26] = assay: Drug level in Swiss Webster mouse kidney at 10 mg/kg, po after 3 hrs; type: ADME, organism-based; parameters: dose 10 mg/kg, route oral; conditions: in vivo
Lung [27] = assay: Drug level in Swiss Webster mouse lung at 10 mg/kg, ip after 1 hr; type: ADME, organism-based; parameters: dose 10 mg/kg, route intraperitoneal; conditions: in vivo
Kidney [28] = assay: Drug level in Swiss Webster mouse kidney at 10 mg/kg, ip after 1 hr; type: ADME, organism-based; parameters: dose 10 mg/kg, route intraperitoneal; conditions: in vivo

Structure (SMILES)	Activity (Cowpox virus [1])	EC50 (Cowpox virus [15])	Activity (Cowpox virus [16])	log10PFU (Vaccinia virus [17])	log10PFU (Vaccinia virus [18])	Activity (Cowpox virus [19])	Activity (Cowpox virus [20])	Activity (Vaccinia virus [21])	Activity (Vaccinia virus [22])	Activity (Vaccinia virus [23])	Activity (Vaccinia virus [24])	further results
CCCCCCCCCCCCCCCCOCCCOP(=O)(O)CO[C@H](CO)Cn1cnc2c(N)ncnc21	87%	20 nM	inactive	4 g	4 g	13.8 days	73%	7.8 days	9.1 days	87%	33%	Drug uptake (Liver [2]): 130 nmol/g; Drug uptake (Liver [3]): 21 nmol/g; concentration (Mus musculus [4]): 30 nM; bioavailability [5]: 74%; concentration (Mus musculus [6]): 80 nM; AUC (Mus musculus [7]): 12.1 nmol·h/g; Tmax [8]: 1 h; AUC (Mus musculus [9]): 16.4 nmol·h/g; Tmax [10]: 3 h; Cmax [11]: 2200 nM; Cmax [12]: 1100 nM; half-life [13]: 2.5 h; half-life [14]: 11.5 h; Drug uptake (Lung [25]): 1.9 nmol/g; Drug uptake (Kidney [26]): 5.1 nmol/g; Drug uptake (Lung [27]): 2.8 nmol/g; Drug uptake (Kidney [28]): 23 nmol/g
CCCCCCCCCCCCCCCCCCOCCOP(=O)(O)CO[C@H](CO)Cn1cnc2c(N)ncnc21	80%	20 nM	inactive	4 g	4 g	14 days	67%	9 days	9 days	40%	53%	
